In publication PMC9024338, “Bruceine H Mediates EGFR-TKI Drug Persistence in NSCLC by Notch3-Dependent β-Catenin Activating FOXO3a Signaling” (Frontiers in Oncology, 2022):

Experiments:
A549 cells = assay: Wound healing assay for migration; type: cell-based, human; settings: 4 μM, 48 h
Experimental: A549 cells (3 × 10^5/ml/well) were seeded into a six-well plate. After overnight culture, when the fusion rate reached 95%–100%, the sterile pipette tip was perpendicular to the plate plane, and a straight wound was drawn on the cell monolayer. Following treatment with BD or BH, the migration of the cells was examined under a microscope (×4, Nikon, Tokyo, Japan), and pictures were obtained at 0 and 48 h. The computation of the cell migration formula is as follows: relative migration area (%) = (0 h wound area – 48 h wound area)/0 h wound area × 100%.

[1] = Toxicity study in nude mice: organ index, blood routine, serum biochemistry; type: in vivo
Experimental: At the end of the experiment, blood samples were taken and analyzed by blood routine. […] The lungs and spleen were weighed and recorded. H&E staining of the heart, liver, spleen, lungs, and kidneys was performed to evaluate the cytotoxic effects of BH.

A549 xenografts = A549 xenografts in BALB/c nude mice; type: in vivo
Experimental: The total proteins of cells and tissues were extracted with RIPA cleavage buffer containing a protease inhibitor cocktail, phenylmethylsulfonyl fluoride (PMSF, Solarbio). The cell lysates (20 μg) were run on SDS-polyacrylamide gel (6%–10%) and transferred to the polyvinylidene fluoride membrane (PVDF, Millipore, MA, USA) by electrophoresis. The membrane was blocked with 5% skim milk in TBST for 2 h, incubated overnight with the corresponding primary antibody at 4°C, and then incubated with the corresponding secondary antibody at room temperature for 2 h. The reaction products were detected by chemiluminescence by ECL Western Blotting Detection System. Finally, quantitative analysis was carried out with ImageJ software.
The heart, liver, spleen, lung, kidney, and tumor tissues were embedded in paraffin, and the sections (4 µm) were stained with hematoxylin–eosin (H&E, Solarbio) and then examined and analyzed under a Leica DM6B microscope (Leica Microsystems, Wetzlar, Germany).
The tumor section was dewaxed and repaired with antigen, 3% H2O2 was added, and then the section was sealed with 10% goat serum at room temperature for 30 min. The first antibody against Ki-67 and Notch3 (CST) was incubated overnight at 4°C, and the second antibody was incubated at room temperature for 30 min. After DAB staining, the sections were counterstained with hematoxylin for 2 min and then observed and analyzed under a Leica microscope.
The animal procedures were approved by the Ethics Committee of the Experimental Animal Center of Jiangxi University of Chinese Medicine (Nanchang, China, SCXK 2016-0006) and conducted following the Guide for the Care and Use of Laboratory Animals. Four-week-old male BALB/c nude mice (weighing 16–17 g, SPF grade) were obtained from Shanghai Shrek Experimental Animal Co., Ltd. (Shanghai, China). The xenotransplantation model was established by subcutaneous injection of A549 or PC-9/GR cells in nude mice, which were collected with PBS and mixed with an equal volume of Matrigel at a final concentration of 1 × 10^7/ml. […] Measurements of tumor size and body weight were conducted every 2 days with a vernier caliper and an electronic balance. Nodule growth was quantified by using the following formula: tumor volume (mm^3) = (short-diameter)^2 × large-diameter × π/6.

PC-9/GR xenografts = PC-9/GR xenografts in BALB/c nude mice; type: in vivo; settings: BH 2.5 mg/kg, gefitinib 25 mg/kg, alone or co-administered, intragastric
PC-9/GR cells = assay: CCK-8 cell viability assay, PC-9/GR (gefitinib-resistant); type: cell-based; settings: Homo sapiens, 48 h, Figure 3B, unit only in axis title Concentration (μM)
Experimental: The human NSCLC cell lines (A549, PC-9, and PC-9/GR) and other cell lines (16HBE and LO2) were purchased from the American Type Culture Collection (ATCC, Manassas, VA, USA). […] All cell lines were cultivated at 37°C under 5% CO2.
The Cell Counting Kit-8 assays (Beyotime, Shanghai, China) were performed to assess cell viability. […] Microplate readers (Infinite F500, Tecan, Mannedorf, Switzerland) were used to measure the absorbance (A) at 450 nm. All samples were assessed in triplicate.

[2] = nude mice serum, mean ± SD (Table S4)
[3] = nude mice, routine blood (Table S3)
[4] = nude mice, Gef 25, BH 2.5, Gef + BH 25 + 2.5 mg×kg^-1×d^-1, X±S

CC1=CC(=O)[C@@H](O)[C@]2(C)[C@H]3[C@@H](O)[C@H](O)[C@@]4(CO)OC[C@@]35[C@@H](C[C@@H]12)OC(=O)[C@H](O)[C@]54O [BH, Bruceine H]
migration of A549 cells (wound healing) (A549 cells): impaired
HDL-C [1, 2]: 1.14 ± 0.18 mmol/L
LDL-C [1, 2]: 1.40 ± 0.08 mmol/L
TC [1, 2]: 3.25 ± 0.21 mmol/L
TG [1, 2]: 0.70 ± 0.16 mmol/L
GR [1, 3]: 3.36±2.394 ×10^9/L
GR (%) [1, 3]: 80.567±11.274%
HCT [1, 3]: 62.867±5.658%
HGB [1, 3]: 172.333 ± 12.014 g/L
LY [1, 3]: 0.920±0.401 ×10^9/L
LY (%) [1, 3]: 14.7±6.165%
MCH [1, 3]: 15.567 ± 0.289 pg
MCHC [1, 3]: 296.333 ± 10.970 g/L
MCV [1, 3]: 52.567 ± 1.823 fL
MO [1, 3]: 0.242±0.045 ×10^9/L
MO (%) [1, 3]: 5.043±1.086%
MPV [1, 3]: 7.267 ± 0.208 fL
PCT [1, 3]: 0.753±0.195 mL/L
PLT [1, 3]: 1030±241.156 ×10^9/L
RBC [1, 3]: 13.193±1.792 ×10^12/L
WBC [1, 3]: 6.633±2.371 ×10^8/L
Lung index [1, 4]: 32.463 ± 2.078 g/kg
Spleen index [1, 4]: 5.949 ± 0.526 g/kg
growth of A549 xenografts (A549 xenografts; 2.5 or 5 mg/kg intragastric, 16 days): significantly inhibited
organ indexes of heart, kidney, liver, lung, spleen (A549 xenografts; A549 xenograft mice): no significant changes
body weight (A549 xenografts; A549 xenograft mice, 2.5 and 5 mg/kg): without significant changes
Notch3 expression in tumor xenografts (A549 xenografts; A549 xenografts, IHC, vs model group): decreased in a dose-dependent manner
number of Ki-67-positive cells in cancer tissues (A549 xenografts; A549 xenografts, IHC, vs vehicle): decreased
Notch3, β-catenin, and Bcl-2 protein levels in tumor tissues (A549 xenografts; A549 xenografts, Western blot): decreased
expression of FOXO3a in tumor tissues (A549 xenografts; A549 xenografts, Western blot): increased
tumor growth of PC-9/GR xenografts (PC-9/GR xenografts): slight inhibitory effect
IC50 (PC-9/GR cells): 21.7 µM
